Experimental data: patent US20260183303A1, “PDK1 REGULATORY COMPOUND AND COMPOSITION CONTAINING THE SAME” (PROVIBIO CO., LTD., priority 2024, published 2026)
Structures can show the parent of a compound that is named as a salt.

Columns and labels:
[1] = test system: T cells isolated from mouse spleens; assay: T cell proliferation inhibition (CFSE flow cytometry, anti-CD3/anti-CD28 activation); format: cell-based, C57BL/6 mice; conditions: mouse spleen T cells, CD3/CD28 activated, cultured three days; for inhibition at 0.01 µM / inhibition at 0.1 µM / inhibition at 1 µM / inhibition at 10 µM / inhibition at 30 µM / inhibition at 50 µM: Mus musculus, T-cell, 72 h, read-out: Proliferation inhibition rate (%)
Outline: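 Splenic T cells from 7-week-old C57BL/6 mice were CFSE-labelled and seeded at 2×10^5/well. They were activated with anti-CD3/anti-CD28 ([…]) and treated with compound at […] in triplicate for 3 days at 37 °C. Proliferation was read by CFSE dilution on flow cytometry and expressed as % inhibition.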

[2] = test system: Human B Lymphocyte cell line, SU-DHL-8; assay: Relative cell viability (CCK-8), SU-DHL-8; format: cell-based; conditions: for viability at 1 µM / viability at 10 µM / viability at 30 µM / viability at 50 µM: Homo sapiens, SU-DHL-8, 48 h; for viability at 1 µM: read-out: Relative cell viability (%), SU-DHL-8, 1 μM, untreated cells (DMSO) = 100%; for viability at 10 µM: read-out: Relative cell viability (%), SU-DHL-8, 10 μM, untreated cells (DMSO) = 100%; for viability at 30 µM: read-out: Relative cell viability (%), SU-DHL-8, 30 μM, untreated cells (DMSO) = 100%; for viability at 50 µM: read-out: Relative cell viability (%), SU-DHL-8, 50 μM, untreated cells (DMSO) = 100%; for Relative cell viability (%): 48 hours, untreated cells (DMSO) = 100%
Description: Human-derived B lymphoma cell line SU-DHL-8 (Cat. #CRL-2961) purchased from ATCC was cultured in RPMI-1640 medium containing […], 100 U/mL penicillin, and 100 μg/mL streptomycin.
The cell culture medium was then harvested, centrifuged at 1,300 rpm for 5 minutes, and the supernatant was removed. The cells were resuspended in the same medium and dispensed into a 96-well plate (Costar 96-well cell culture plate, Corning) at 90 μL per well, resulting in the conditions specified in Table 5.
Then, 10 μL of CCK-8 was added to each well, and the plates were incubated again at 37° C. in a 5% CO2 incubator for 4 hours.
In other words, when the survival rate of untreated cells (DMSO) is set at 100%, the relative cell survival rate in each group treated with the drug at different concentrations is indicated.

CC(C)(C)OC(=O)N[C@H]1CCN(CCCCCCCCCCCCNC(=O)c2cccnc2N)C1 [Compound 49, tert-Butyl(S)-(1-(12-(2-aminonicotinamido)dodecyl)pyrrolidin-3-yl)carbamate]
inhibition at 0.01 µM ([1]; 10 nM): -22.6%
inhibition at 0.1 µM ([1]; 100 nM): 100%
inhibition at 1 µM ([1]; 1 μM): 100%
inhibition at 10 µM ([1]; 10 μM): 100%
inhibition at 30 µM ([1]; 30 μM): 100%
inhibition at 50 µM ([1]; 50 μM): 100%
viability at 1 µM [2]: 8.93%
viability at 10 µM [2]: 8.02%
viability at 30 µM [2]: 7.48%
viability at 50 µM [2]: 4.09%

Cl.Nc1ncccc1C(=O)NCCCCCCCCCCCCN1CC[C@H](N)C1 [Compound 50, (S)-2-Amino-N-(12-(3-aminopyrrolidin-1-yl)dodecyl) nicotinamide hydrochloride]
Proliferation inhibition rate (%) ([1]; 100 nM): 100.00%
Proliferation inhibition rate (%) ([1]; 1 μM): 100.00%
Proliferation inhibition rate (%) ([1]; 10 μM): 100.00%
Proliferation inhibition rate (%) ([1]; 30 μM): 100.00%
Proliferation inhibition rate (%) ([1]; 50 μM): 100.00%
Relative cell viability (%) ([2]; SU-DHL-8, 1 μM): 9.20%

Cc1ccc(OC2CCN(CCCCCCCCCCCCNC(=O)c3cccnc3N)CC2)cc1 [Compound 51, 2-Amino-N-(12-(4-(p-tolyloxy)piperidin-1-yl)dodecyl) nicotinamide]
Proliferation inhibition rate (%) ([1]; 10 nM): 0.77%
Proliferation inhibition rate (%) ([1]; 1 μM): 100.00%
Proliferation inhibition rate (%) ([1]; 10 μM): 100.00%
Proliferation inhibition rate (%) ([1]; 30 μM): 100.00%
Proliferation inhibition rate (%) ([1]; 50 μM): 100.00%
Relative cell viability (%) ([2]; SU-DHL-8, 30 μM): 0.89%
Relative cell viability (%) ([2]; SU-DHL-8, 50 μM): 0.48%

Cc1ccc(C2CCN(CCCCCCCCCCCCNC(=O)c3cccnc3N)CC2)cc1 [Compound 55, 2-Amino-N-(12-(4-(p-tolyl)piperidin-1-yl)dodecyl) nicotinamide]
Proliferation inhibition rate (%) ([1]; 100 nM): 100.00%
Proliferation inhibition rate (%) ([1]; 1 μM): 100.00%
Proliferation inhibition rate (%) ([1]; 10 μM): 100.00%
Proliferation inhibition rate (%) ([1]; 30 μM): 100.00%
Proliferation inhibition rate (%) ([1]; 50 μM): 100.00%
Relative cell viability (%) ([2]; SU-DHL-8, 30 μM): 1.10%
Relative cell viability (%) ([2]; SU-DHL-8, 50 μM): 0.97%

O=C(NCCCCCCCCCCCCN1CCNCC1)c1ccc(-c2ccccc2)o1 [Compound 90, 5-Phenyl-N-(12-(piperazin-1-yl)dodecyl)furan-2-carboxamide hydrochloride]
inhibition at 0.01 µM ([1]; 10 nM): -8.27%
inhibition at 0.1 µM ([1]; 100 nM): -2.03%
inhibition at 1 µM ([1]; 1 μM): 66.2%
inhibition at 10 µM ([1]; 10 μM): 100%
inhibition at 30 µM ([1]; 30 μM): 100%
inhibition at 50 µM ([1]; 50 μM): 100%
viability at 1 µM [2]: 7.19%
viability at 10 µM [2]: 5.94%
viability at 30 µM [2]: 2.48%
viability at 50 µM [2]: 1.94%

CN1CCN(C2CCN(CCCCCCCCCCCCNC(=O)c3cccnc3N)CC2)CC1 [Compound 124, 2-Amino-N-(12-(4-(4-methylpiperazin-1-yl)piperidin-1-yl)dodecyl) nicotinamide]
Proliferation inhibition rate (%) ([1]; 10 nM): 0.00%
Proliferation inhibition rate (%) ([1]; 100 nM): 20.00%
Proliferation inhibition rate (%) ([1]; 1 μM): 30.00%
Proliferation inhibition rate (%) ([1]; 10 μM): 100.00%
Proliferation inhibition rate (%) ([1]; 30 μM): 100.00%
Proliferation inhibition rate (%) ([1]; 50 μM): 100.00%
Relative cell viability (%) ([2]; SU-DHL-8, 1 μM): 30.43%
Relative cell viability (%) ([2]; SU-DHL-8, 10 μM): 30.70%
Relative cell viability (%) ([2]; SU-DHL-8, 30 μM): 32.10%
Relative cell viability (%) ([2]; SU-DHL-8, 50 μM): 31.72%
